From ChEMBL document CHEMBL1131891, “Antiplatelet actions of aporphinoids from Formosan plants” (Bioorg Med Chem Lett, 1999) come the findings set out here.

Broadly, the IC50 is the concentration that inhibits the measured activity by half.

Bounds are passed on as bounds.

Holding throughout (assay type): functional
For test [1], the species on record is Oryctolagus cuniculus. Kind of test: Inhibitory activity against platelet aggregation induced by platelet activating factor(PAF) in washed rabbit platelet.
For test [2], the species on record is Oryctolagus cuniculus. The test is described as follows: Effect on platelet aggregation induced by platelet activating factor(PAF) in washed rabbit platelet.
The species named for test [3] is Oryctolagus cuniculus. The test is described as follows: Effect on platelet aggregation induced by collagen in washed rabbit platelet.
The species entered for test [4] is Oryctolagus cuniculus. The test is described as follows: Effect on platelet aggregation induced by arachidonic acid(AA) in washed rabbit platelet.
Test [5] is filed under the species Oryctolagus cuniculus. The test is described as follows: Effect on platelet aggregation induced by adenosine 5'-diphosphate (ADP) in washed rabbit platelet.
The species entered for test [6] is Oryctolagus cuniculus. Kind of test: Inhibitory activity against platelet aggregation induced by arachidonic acid(AA) in washed rabbit platelet.
For test [7], the species on record is Oryctolagus cuniculus. The test is described as follows: Inhibitory activity against platelet aggregation induced by collagen in washed rabbit platelet.

As for `COc1cc2c(cc1OC)C(O)C1c3c(c(OC)c(OC)c(OC)c3-2)CCN1C` (configuration not stated), the 50% inhibitory concentration (IC50) came out at 11.8 µM in the test listed under Oryctolagus cuniculus [1] (read-out: IC50) and 70.4 µM in the test listed under Oryctolagus cuniculus [6] (read-out: IC50). The Aggregation in the test listed under Oryctolagus cuniculus [2] worked out at 0%; in the test filed under Oryctolagus cuniculus [3], 0%; in the test filed under Oryctolagus cuniculus [4], 0%; in the test filed under Oryctolagus cuniculus [5], 34.5%.

As for `COc1cc2c3c(c1O)-c1ccccc1CC3N(C)CC2` (configuration not stated), the Aggregation in the test filed under Oryctolagus cuniculus [2] came to 51.7%; in the test filed under Oryctolagus cuniculus [3] it was 0%; in the test filed under Oryctolagus cuniculus [4], 0%; in the test listed under Oryctolagus cuniculus [5], 86.3%. Moreover, the half-maximal inhibitory concentration (IC50) in the test filed under Oryctolagus cuniculus [6] (read-out: IC50) was 171 µM.

Consider `COc1cc2c(cc1OC)C(O)C1c3c(cc(OC)c(OC)c3-2)CCN1C` (configuration not stated), for which the IC50 in the test listed under Oryctolagus cuniculus [1] (read-out: IC50) stood at 52.6 µM. Moreover, the Aggregation in the test listed under Oryctolagus cuniculus [2] came out at 0%; in the test filed under Oryctolagus cuniculus [3] it was 12.7%; in the test listed under Oryctolagus cuniculus [4], 21.8%; in the test filed under Oryctolagus cuniculus [5], 78.3%.

On to `COc1cc2c(cc1O)C[C@H]1c3c(cc(OC)c(OC)c3-2)CC[N+]1(C)C.[I-]`, for which the Aggregation in the test filed under Oryctolagus cuniculus [2] worked out at 82.7%; in the test filed under Oryctolagus cuniculus [3] it was 81.3%; in the test filed under Oryctolagus cuniculus [4] it was 88.1%; in the test listed under Oryctolagus cuniculus [5], 87.6%.

`COc1ccc2c(c1OC)-c1c(OC)c(O)cc3c1[C@H](C2)N(C)CC3`: the Aggregation is 78.6% in the test filed under Oryctolagus cuniculus [2], 83.5% in the test listed under Oryctolagus cuniculus [3], 86.5% in the test filed under Oryctolagus cuniculus [4] and 89.4% in the test filed under Oryctolagus cuniculus [5].

Turning to `COc1cc2c(cc1OC)-c1c3c(cc4c1[C@H](C2)N(OC)CC4)OCO3`, the Aggregation in the test filed under Oryctolagus cuniculus [2] was 92.2%; in the test filed under Oryctolagus cuniculus [3], 87.3%; in the test filed under Oryctolagus cuniculus [4] it was 80.9%; in the test filed under Oryctolagus cuniculus [5] it was 86.8%.

Take `CC1=NN(c2ccc([N+](=O)[O-])cc2)C(=O)C1[N+](=O)[O-].COc1cc2c(cc1O)C[C@@H]1NCCc3cc(O)c(OC)c-2c31`: the Aggregation is on record as 79.3% in the test filed under Oryctolagus cuniculus [2], 4.6% in the test filed under Oryctolagus cuniculus [3], 0% in the test filed under Oryctolagus cuniculus [4] and 92.1% in the test filed under Oryctolagus cuniculus [5]. Also, the 50% inhibitory concentration (IC50) in the test listed under Oryctolagus cuniculus [6] (read-out: IC50) is 149 µM.

Take `COc1cc2c3c(c1OC)-c1ccccc1C[C@@H]3NCC2`: the Aggregation in the test listed under Oryctolagus cuniculus [2] came to 30.6%; in the test filed under Oryctolagus cuniculus [3] it was 0%; in the test filed under Oryctolagus cuniculus [4], 0%; in the test filed under Oryctolagus cuniculus [5], 77.1%. For the same compound, in the test filed under Oryctolagus cuniculus [6] (read-out: IC50), the half-inhibitory concentration (IC50) is 211 µM.

Regarding `COc1c(O)ccc2c1-c1c(OC)c(O)cc3c1[C@H](C2)[N+](C)(C)CC3.[I-]`, the Aggregation is 85.5% in the test listed under Oryctolagus cuniculus [2], 89.8% in the test filed under Oryctolagus cuniculus [3], 83.7% in the test filed under Oryctolagus cuniculus [4] and 90.7% in the test listed under Oryctolagus cuniculus [5].

For `COc1ccc2c(c1OC)-c1c3c(cc4c1[C@H](C2)[N+](C)(C)CC4)OCO3.[I-]`, the Aggregation in the test listed under Oryctolagus cuniculus [2] is recorded as 83.9%; in the test listed under Oryctolagus cuniculus [3] it was 77.6%; in the test filed under Oryctolagus cuniculus [4], 89%; in the test filed under Oryctolagus cuniculus [5], 88.6%.

For `Br.COc1c(O)ccc2c1-c1c3c(cc4c1[C@H](C2)NCC4)OCO3`, the Aggregation in the test listed under Oryctolagus cuniculus [2] came to 91.6%; in the test listed under Oryctolagus cuniculus [3], 0%; in the test listed under Oryctolagus cuniculus [4] it was 60%; in the test listed under Oryctolagus cuniculus [5], 91.8%.

As for `COc1c(O)ccc2c1-c1c(OC)c(O)cc3c1[C@H](C2)NCC3.Cl`, the Aggregation in the test listed under Oryctolagus cuniculus [2] worked out at 4%; in the test filed under Oryctolagus cuniculus [3] it was 0%; in the test listed under Oryctolagus cuniculus [4] it was 0%; in the test listed under Oryctolagus cuniculus [5], 10.5%. Besides, the IC50 in the test listed under Oryctolagus cuniculus [6] (read-out: IC50) is 168 µM.

For the compound `CC(=O)Oc1ccccc1C(=O)O` [ASPIRIN], the IC50 in the test filed under Oryctolagus cuniculus [1] was more than 1000 µM; in the test listed under Oryctolagus cuniculus [7] it was more than 1000 µM; in the test filed under Oryctolagus cuniculus [6], 164 µM. Also, the Aggregation in the test listed under Oryctolagus cuniculus [2] was 90.4%; in the test filed under Oryctolagus cuniculus [3], 87.4%; in the test filed under Oryctolagus cuniculus [4], 0%; in the test filed under Oryctolagus cuniculus [5], 77.9%.

Regarding `COc1ccc2c(c1OC)-c1c(OC)c(OC)cc3c1[C@H](C2)[N+](C)(C)CC3.[I-]` [ISOCORYDINE METHIODIDE], the Aggregation in the test listed under Oryctolagus cuniculus [2] is recorded as 85.6%; in the test filed under Oryctolagus cuniculus [3], 87.9%; in the test filed under Oryctolagus cuniculus [4], 71%; in the test listed under Oryctolagus cuniculus [5] it was 90.2%.

Regarding `CN1CCc2cc3c(c4c2[C@H]1Cc1ccccc1-4)OCO3.Cl` [REMERINE HYDROCHLORIDE], the Aggregation is given as 27.8% in the test filed under Oryctolagus cuniculus [2], 0% in the test listed under Oryctolagus cuniculus [3], 0% in the test listed under Oryctolagus cuniculus [4] and 67.2% in the test listed under Oryctolagus cuniculus [5]. Besides, the IC50 in the test listed under Oryctolagus cuniculus [7] (read-out: IC50) came to 88.2 µM; in the test listed under Oryctolagus cuniculus [6] (read-out: IC50), 195 µM.
